Assays:
[1] = tested on: HFF (Human Foreskin Fibroblast) cells; assay: Cytotoxicity test (sulforhodamine B) on HFF cells; assay type: cell-based
Experimental: Culturing of HFF (Human Foreskin Fibroblast Cells in 96-Well Plate From a 75 cm^2 flask of HFF cells at confluence, the culture medium was removed, and then 2 mL of trypsin-EDTA (0.025% trypsin and 0.01% EDTA—Ethylenediaminetetraacetic acid) was added (at 37° C.). The flask was then briefly rinsed and the trypsin was removed. 2 mL of trypsin-EDTA was subsequently added and the flask was incubated for 5 minutes in an oven at 37° C.
5 ml of culture medium (minimal essential medium—MEM (PARA Laboratories GmbH)+Glutamine (2 mM)+Fungizone (2.5 μg/mL)+Penicillin (100 units/mL)+Streptomycin (100 μg/mL)+decomplemented Foetal Calf Serum 15%) was added and then the flask was rinsed with a pipette. The medium and cells were recovered in a tube. Counting on the Malassez counting chamber was then performed.
The cells were subsequently centrifuged at 200 g, for 7 minutes, and then the supernatant was removed. The pellet was taken up in the culture medium in a manner so as to obtain 10^5 cells/mL.
200 μL of this suspension per well was distributed, while leaving empty the wells of columns 1 and 12 and rows A and H. The wells that were left empty were filled with 200 μL of culture medium in order to prevent evaporation.
When the cells had reached confluence in the wells (about 48 hours), the medium was aspirated by making use of a vacuum extractor pump and then 200 μL of culture medium containing the various polysaccharides to be tested (the latter are tested at 50, 100, and 200 μg/mL) was added.
Each concentration was tested in triplicate. […]
The proteins were solubilised by using 200 μL of Tris-Base (10 mM) for 5 minutes on a plate with stirring at ambient temperature. The OD (Optical Density) at 550 nm was measured by making use of a microplate reader (Multiskan FC357, Thermo Scientific).
The mean of the OD and the standard deviation have been calculated for each sample tested in order to arrive at a conclusion with respect to the toxicity of the products.

Nosema ceranae = assay: Inhibitory activity in vivo on Nosema in honey bees
Experimental: The results presented here have been obtained from the summer honey bees.
After recovering one brood chamber frame (or more as per the needs in honey bees) from the apiary by means of a glass frame holder, the latter was placed in an oven at 34° C. for a period of 24 to 48 hours in a manner so as to allow the honey bees to emerge from their cells. Then, the young honey bees were retrieved from the frame by making use of a pair of entomologist's forceps and placed in the beekeeping boxes (supers) on the basis of 50 honey bees/box. ⅙^th of a tube stick of PseudoQueen (Contech Enterprises, Canada) was added in each of the beekeeping boxes.
Each polysaccharide treatment was carried out in triplicate (three boxes/treatment). Each test operation contained a “healthy honey bees” control (honey bees not infected and not treated), an “infected honey bees” control (honey bees infected experimentally and not treated) and a fumagillin control; with these controls also being in triplicate. […]
Over the course of the post-Infection phase (a time period of 20 days), the dead honey bees were counted and removed on a daily basis from each of the boxes in order to track and monitor mortality. […]

SMILES	Conclusion ([1]; HFF cells, culture medium containing 20% of DMSO, 96 hours)	Viability (%) ([1]; HFF cells, positive control: culture medium containing 20% of DMSO, 96 hours of incubation)	Viability (%) ([1]; human, 96 h, 1 μg/mL)	Mortality at 20 days post-infection (%) (Nosema ceranae; honey bees infected with 125,000 N. ceranae spores, syrup supplemented with 1 μg/mL fumagillin, fed 3 days before and 20 days after infection)	Change in parasite load (decrease) (Nosema ceranae; spore count at 20 days vs infected honey bees control, syrup with 1 μg/mL fumagillin)
C[S+](C)[O-] [DMSO Positive Control, DMSO]	Cytotoxic: control validated	6.8 +/− 1.4%			
CO[C@@H]1[C@H](OC(=O)/C=C/C=C/C=C/C=C/C(=O)O)CC[C@]2(CO2)[C@H]1[C@@]1(C)O[C@@H]1CC=C(C)C [Fumagillin Control, fumagillin]			99.1 +/− 12.2%	25.9 +/− 16.7%	Decrease of 63.4%
